# Assay results taken from US12325744B2, “Methods for reducing post-operative cognitive dysfunction (POCD)” (The Kennedy Trust for Rheumatology Research, priority 2010, dated 2025).
# “Also recorded” adds a separate entry of the source.
# Tested on: C57-BL6 mice
# Assay: Fear conditioning, freezing to context after tibial surgery
# Format: in vivo
# Details: wild type mice, surgery 30 min after training, tested three days later
# Procedure: Fear conditioning tests. Mice were conditioned 30 minutes or 3 days prior to intervention by training with two cycles of tone and foot-shock pairings. In delay fear conditioning a foot-shock was administered during the last 2 seconds of each 20 seconds-lasting tone.
# In trace fear conditioning, the foot-shock onset, lasting 2 seconds as in the previous paradigm, followed a 20-second gap after each tone termination. Three days after conditioning, mice were placed back in the original conditioning chamber for 270 seconds, where no tone or shock were presented, to assess recall of contextual fear memory. After 3 h mice were placed in a novel environment (different context from training) to test for auditory-cued memory. Following an initial baseline period of 135 seconds during which freezing was scored in absence of noise, the auditory cue was presented for the final 135 seconds of the test, and freezing was again recorded. (For further details please refer to supplemental methods).
# The behavioral study was conducted using a conditioning chamber (Med. Associates Inc., St. Albans, VT, USA). The back- and the side-walls of the chamber were made of aluminium, whereas the front door and the ceiling were of transparent Plexiglas. The floor of the chamber consisted of 36 stainless steel rods (1 mm diameter) spaced 0.5 cm apart (center-to-center). […]
substance,measurement,value
"IL-1Ra: IL-1 receptor antagonist (Amgen, Anakinra)","Freezing to context (delay fear conditioning) after surgery, effect of treatment",prevented the decrement in postoperative freezing behavior; also recorded: significantly reduced the surgery-induced decrement in freezing behavior
